Laboratory results as given in patent US8192962B2, “Processes for detecting toxic substances” (Daikin Industries, Ltd., priority 2001, dated 2012).

System: Genes belonging to other category
Assay: DNA chip mRNA expression in yeast, genes belonging to other category (Table 9)
Format: cell-based, Saccharomyces cerevisiae S288C
Summary of the method: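 Values are treated/untreated fluorescence ratios from a whole-genome yeast DNA chip hybridized over 12 hours at 65° C with Cy3- or Cy5-labelled cDNA from poly(A) mRNA. Log-phase S288C yeast in YPD at 25° C had received a single toxic chemical for two hours, dosed to slow growth without killing.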

## CCCCCCCCCCCCOS(=O)(=O)[O-].[Na+] [(18), sodium lauryl sulfate]
Yeast gene YMR219W
  The level of expressed mRNA in the presence of chemical substance/The level of expressed mRNA in the absence of chemical substance: 0.9
Yeast gene YMR226C
  The level of expressed mRNA in the presence of chemical substance/The level of expressed mRNA in the absence of chemical substance: 2.0
Yeast gene YMR275C
  The level of expressed mRNA in the presence of chemical substance/The level of expressed mRNA in the absence of chemical substance: 0.7
Yeast gene YMR276W
  The level of expressed mRNA in the presence of chemical substance/The level of expressed mRNA in the absence of chemical substance: 0.7
Yeast gene YMR297W
  The level of expressed mRNA in the presence of chemical substance/The level of expressed mRNA in the absence of chemical substance: 1.4
Yeast gene YMR314W
  The level of expressed mRNA in the presence of chemical substance/The level of expressed mRNA in the absence of chemical substance: 1.6
Yeast gene YNL006W
  The level of expressed mRNA in the presence of chemical substance/The level of expressed mRNA in the absence of chemical substance: 1.3
Yeast gene YNL007C
  The level of expressed mRNA in the presence of chemical substance/The level of expressed mRNA in the absence of chemical substance: 1.0
Yeast gene YNL036W
  The level of expressed mRNA in the presence of chemical substance/The level of expressed mRNA in the absence of chemical substance: 1.9
Yeast gene YNL093W
  The level of expressed mRNA in the presence of chemical substance/The level of expressed mRNA in the absence of chemical substance: 3.1
Yeast gene YNL196C
  The level of expressed mRNA in the presence of chemical substance/The level of expressed mRNA in the absence of chemical substance: 1.2
Yeast gene YNL333W
  The level of expressed mRNA in the presence of chemical substance/The level of expressed mRNA in the absence of chemical substance: 1.1
Yeast gene YNL335W
  The level of expressed mRNA in the presence of chemical substance/The level of expressed mRNA in the absence of chemical substance: 1.1
Yeast gene YNR006W
  The level of expressed mRNA in the presence of chemical substance/The level of expressed mRNA in the absence of chemical substance: 1.2
Yeast gene YNR010W
  The level of expressed mRNA in the presence of chemical substance/The level of expressed mRNA in the absence of chemical substance: 2.3
Yeast gene YNR069C
  The level of expressed mRNA in the presence of chemical substance/The level of expressed mRNA in the absence of chemical substance: 0.9
Yeast gene YOL005C
  The level of expressed mRNA in the presence of chemical substance/The level of expressed mRNA in the absence of chemical substance: 1.2
Yeast gene YOL013C
  The level of expressed mRNA in the presence of chemical substance/The level of expressed mRNA in the absence of chemical substance: 1.4
Yeast gene YOL016C
  The level of expressed mRNA in the presence of chemical substance/The level of expressed mRNA in the absence of chemical substance: 3.8
Yeast gene YOL152W
  The level of expressed mRNA in the presence of chemical substance/The level of expressed mRNA in the absence of chemical substance: 1.2
Yeast gene YOL164W
  The level of expressed mRNA in the presence of chemical substance/The level of expressed mRNA in the absence of chemical substance: 1.3
Yeast gene YOR003W
  The level of expressed mRNA in the presence of chemical substance/The level of expressed mRNA in the absence of chemical substance: 1.1
Yeast gene YOR036W
  The level of expressed mRNA in the presence of chemical substance/The level of expressed mRNA in the absence of chemical substance: 1.7
Yeast gene YOR117W
  The level of expressed mRNA in the presence of chemical substance/The level of expressed mRNA in the absence of chemical substance: 0.9
Yeast gene YOR124C
  The level of expressed mRNA in the presence of chemical substance/The level of expressed mRNA in the absence of chemical substance: 1.0
Yeast gene YOR132W
  The level of expressed mRNA in the presence of chemical substance/The level of expressed mRNA in the absence of chemical substance: 1.6
Yeast gene YOR133W
  The level of expressed mRNA in the presence of chemical substance/The level of expressed mRNA in the absence of chemical substance: 1.2
Yeast gene YOR157C
  The level of expressed mRNA in the presence of chemical substance/The level of expressed mRNA in the absence of chemical substance: 1.2
Yeast gene YOR181W
  The level of expressed mRNA in the presence of chemical substance/The level of expressed mRNA in the absence of chemical substance: 0.6
Yeast gene YOR185C
  The level of expressed mRNA in the presence of chemical substance/The level of expressed mRNA in the absence of chemical substance: 1.1
Yeast gene YOR198C
  The level of expressed mRNA in the presence of chemical substance/The level of expressed mRNA in the absence of chemical substance: 1.5
Yeast gene YOR259C
  The level of expressed mRNA in the presence of chemical substance/The level of expressed mRNA in the absence of chemical substance: 1.5
Yeast gene YOR261C
  The level of expressed mRNA in the presence of chemical substance/The level of expressed mRNA in the absence of chemical substance: 1.9
Yeast gene YOR265W
  The level of expressed mRNA in the presence of chemical substance/The level of expressed mRNA in the absence of chemical substance: 1.2
Yeast gene YOR288C
  The level of expressed mRNA in the presence of chemical substance/The level of expressed mRNA in the absence of chemical substance: 1.6
Yeast gene YOR355W
  The level of expressed mRNA in the presence of chemical substance/The level of expressed mRNA in the absence of chemical substance: 0.9
Yeast gene YOR383C
  The level of expressed mRNA in the presence of chemical substance/The level of expressed mRNA in the absence of chemical substance: 1.1
Yeast gene YPL001W
  The level of expressed mRNA in the presence of chemical substance/The level of expressed mRNA in the absence of chemical substance: 1.2
Yeast gene YPL089C
  The level of expressed mRNA in the presence of chemical substance/The level of expressed mRNA in the absence of chemical substance: 1.1
Yeast gene YPL109C
  The level of expressed mRNA in the presence of chemical substance/The level of expressed mRNA in the absence of chemical substance: 1.2
Yeast gene YPL124W
  The level of expressed mRNA in the presence of chemical substance/The level of expressed mRNA in the absence of chemical substance: 1.2
Yeast gene YPL149W
  The level of expressed mRNA in the presence of chemical substance/The level of expressed mRNA in the absence of chemical substance: 2.9
Yeast gene YPL154C
  The level of expressed mRNA in the presence of chemical substance/The level of expressed mRNA in the absence of chemical substance: 2.0
Yeast gene YPL220W
  The level of expressed mRNA in the presence of chemical substance/The level of expressed mRNA in the absence of chemical substance: 1.1
Yeast gene YPR066W
  The level of expressed mRNA in the presence of chemical substance/The level of expressed mRNA in the absence of chemical substance: 1.2
Yeast gene YPR086W
  The level of expressed mRNA in the presence of chemical substance/The level of expressed mRNA in the absence of chemical substance: 1.2
Yeast gene YPR103W
  The level of expressed mRNA in the presence of chemical substance/The level of expressed mRNA in the absence of chemical substance: 1.5
Yeast gene YPR108W
  The level of expressed mRNA in the presence of chemical substance/The level of expressed mRNA in the absence of chemical substance: 1.3
